# Literature values as cited in US20250049963A1, “GLYCOSYLATED DENDRIMERS FOR TARGETED INTRACELLULAR DELIVERY” (The Johns Hopkins University, priority 2021, published 2025).
# Molecular target: T1, GLUT2 (Homo sapiens, UniProt P11168)
# T1 sequence (P11168 1-524): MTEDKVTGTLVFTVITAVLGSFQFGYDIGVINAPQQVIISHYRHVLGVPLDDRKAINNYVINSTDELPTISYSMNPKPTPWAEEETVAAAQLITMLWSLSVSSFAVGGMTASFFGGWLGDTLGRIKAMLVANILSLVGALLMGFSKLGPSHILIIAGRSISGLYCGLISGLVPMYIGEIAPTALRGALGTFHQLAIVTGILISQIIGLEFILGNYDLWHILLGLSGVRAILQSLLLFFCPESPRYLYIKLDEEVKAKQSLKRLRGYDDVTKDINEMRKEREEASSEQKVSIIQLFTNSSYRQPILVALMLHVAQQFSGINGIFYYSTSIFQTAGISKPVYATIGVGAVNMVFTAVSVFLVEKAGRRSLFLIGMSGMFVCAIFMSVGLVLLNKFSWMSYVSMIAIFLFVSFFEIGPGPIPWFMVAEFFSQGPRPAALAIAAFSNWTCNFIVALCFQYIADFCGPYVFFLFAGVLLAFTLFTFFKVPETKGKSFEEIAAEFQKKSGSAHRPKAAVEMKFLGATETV
# Conditions: cited from earlier work
structure (smiles),measurement,value
"NC1C(O)[C@H](O)C(CO)O[C@@H]1O (stereo partly shown) [GlcN, glucosamine]",affinity of GLUT2 for GlcN relative to glucose,~20 fold
